Paper PMC9431032, “Boosting Cosmeceutical Peptides: Coupling Imidazolium-Based Ionic Liquids to Pentapeptide-4 Originates New Leads with Antimicrobial and Collagenesis-Inducing Activities” (Microbiology Spectrum, 2022)
Where “and” joins values, the source holds several entries; their conditions need not be identical. Identical values can stand only once. Like-named read-outs stand apart in the source and are kept apart here. Peptide text beside a SMILES is read from it. * marks the point of attachment. X1 = CCCCCCCCCCCCCCCCn1cc[n+](Cc2cn(CC(=O)*)nn2)c1

Experiments:
[1] = tested on: P. aeruginosa ATCC 27853; assay: microbe, parasite or virus in culture; conditions: P. aeruginosa ATCC 27853; broth microdilution in cation-adjusted MHB2, CLSI; n = 3
Experimental: (§1) The antimicrobial activity of the IL-KTTKS conjugates was assessed in vitro against reference bacterial strains (American Type Culture Collection, ATCC). The minimal inhibitory concentration (MIC) was determined according to the Clinical and Laboratory Standards Institute (CLSI) guidelines ([28]) against Gram-positive (S. aureus, Enterococcus faecalis) and Gram-negative (Escherichia coli, Pseudomonas aeruginosa) bacteria.
(§2) (i) Antibacterial activity in standard conditions. The test conjugates and reference compounds were evaluated for their activity against three reference strains of Gram-negative bacteria, namely, E. coli (ATCC 25922), Pseudomonas aeruginosa (ATCC 27853), and Klebsiella pneumoniae (ATCC 13883), and the four following reference strains of Gram-positive bacteria, Staphylococcus aureus (ATCC 29213), S. Epidermidis (ATCC 14990), E. faecalis (ATCC 29212), and Streptococcus pyogenes (ATCC 19615). […] MBC values were also determined as previously reported ([52]).

[2] = tested on: E. coli ATCC 25922; assay: microbe, parasite or virus in culture; conditions: E. coli ATCC 25922; broth microdilution in cation-adjusted MHB2, CLSI; n = 3
Experimental: as §1, §2

[3] = tested on: S. aureus ATCC 29213; assay: microbe, parasite or virus in culture; conditions: S. aureus ATCC 29213; broth microdilution in cation-adjusted MHB2, CLSI; n = 3
Experimental: as §1, §2

[4] = tested on: K. pneumonia ATCC 138830; assay: microbe, parasite or virus in culture; conditions: K. pneumonia ATCC 138830; broth microdilution in cation-adjusted MHB2, CLSI; n = 3
Experimental: as §1, §2

[5] = tested on: E. faecalis ATCC 29212; assay: microbe, parasite or virus in culture; conditions: E. faecalis ATCC 29212; broth microdilution in cation-adjusted MHB2, CLSI; n = 3
Experimental: as §1, §2

[6] = tested on: human dermal fibroblasts (HDF); assay: Collagen production, Sircol kit assay; format: cell-based; conditions: 5 μM, 48 h, three independent experiments in triplicates, values only in Fig. 3
Experimental: The point of conjugating antimicrobial ILs to a collagenesis-inducing peptide was to afford a simple construct able to exert a dual antimicrobial and skin rebuilding action. Therefore, the two best IL-KTTKS conjugates were further tested for their ability to promote collagen production by human dermal fibroblasts (HDF) in vitro. This was assessed using the Sircol kit assay, whereby the amount of newly formed collagen in the ECM that is deposited in the microwell-plated cell cultures is solubilized in an acidic medium and next quantified through a collagen standard curve according to the Sircol kit assay procedure ([38]). […]
(v) Collagen production in human dermal fibroblasts. The amount of collagen produced by HDF was determined using the SIRCOL Kit Assay (Biocolor) according to the manufacturers’ instructions ([38]). […] Medium was then removed, and quantitation of the newly formed collagen proceeded as follows: collagen was solubilized in cold 0.5 M aqueous acetic acid (Fisher Chemical) and concentrated overnight with deposition of a transparent pellet; after centrifugation, the supernatant was discarded and the pellet was labeled with the SIRCOL dye reagent; after removing the unbound dye with the acid-salt wash reagent, the collagen-bound dye was dissolved with the alkali reagent and absorbance was measured at 555 nm on Flex Station 3 multimode microplate reader. […]

[7] = tested on: S. aureus (SA007) MDR clinical isolate; conditions: for MIC: n = 3
[8] = tested on: P. aeruginosa (PA004) MDR clinical isolate; conditions: n = 3
[9] = tested on: K. pneumoniae (KP010) MDR clinical isolate; conditions: n = 3
[10] = tested on: HFF-1 cells (human foreskin fibroblasts); format: cell-based; conditions: 24 h
Experimental: (§3) The cytotoxicity of KTTK(C16Im)S and C16Im-KTTKS conjugates was assessed on human foreskin fibroblasts (HFF-1) and human immortalized keratinocytes (HaCaT). […] In turn, the parent IL [C16 M1Im][Br] and its […] equimolar mixture with PP4, KTTKS:[C16 M1Im][Br]
(§4) (iv) Toxicity to human cells. HaCat and HFF-1 were seeded at 4 × 10^4cell/mL in 96-well plate using in Dulbecco’s Modified Eagle Medium (DMEM; CLS) supplemented with 2% FBS (Biowest) and 1% of antibiotic/antimycotic solution (100 units/mL of penicillin, 10 mg/mL of streptomycin, and 0.25 mg/mL of amphotericin B, Sigma-Aldrich). The plate was incubated at 37°C in a 5% CO2 atmosphere, and the cells allowed to grow until confluence was reached. Then, solutions of the test compounds in DMEM supplemented with 2% FBS, in a concentration range between 6.3 and 100 μM, were added to the wells. After 24 h of incubation at 37°C in a 5% CO2 atmosphere, the cell viability was assessed through the resazurin reduction assay. Briefly, the medium was removed and then 20 μL of the alamarBlue Cell Viability Reagent (Resazurin sodium salt, Sigma-Aldrich) at 0.15 mg/mL in 100 μL of Hank’s Balanced Salt Solution (HBSS; Sigma-Aldrich) were added to each well; the plate was next incubated for 2 h at 37°C in a 5% CO2 atmosphere, after which fluorescence was read at 560/590 nm on a Flex Station 3 multi-mode microplate reader (Molecular Devices) ([53]). The IC50 values were thus determined using the GraphPad Prism 9.0 software, by applying the equation log(inhibitor) versus response with variable slope (four parameters).

[11] = tested on: S. aureus (ATCC 29213); conditions: for MBC: ATCC 29213, 24 h; for MIC: 10^5 CFU/mL, 18 h at 37°C, three independent experiments in triplicates
Experimental: The antibacterial activity of C16Im-KTTKS and KTTK(C16Im)S was also assessed in simulated wound fluid (SWF) ([35]) against S. aureus (ATCC 29213), to check if it was preserved in this medium.
(ii) Antibacterial activity in simulated wound fluid. […] In parallel, SWF was prepared to a final composition of 50% fetal bovine serum (FBS; Sigma-Aldrich) and 50% peptone water (0.9% NaCl in 0.1% aqueous peptone; Sigma-Aldrich) ([35]). […] MIC values were determined in triplicates and are a result of three independent experiments.

[12] = tested on: HaCaT cells (human immortalized keratinocytes); assay: cells; format: cell-based; conditions: 24 h
Experimental: as §3, §4

[13] = tested on: S. epidermidis ATCC 14990; conditions: broth microdilution in cation-adjusted MHB2, CLSI, n = 3
Experimental: as §1, §2

[14] = tested on: C. albicans ATCC 90028; assay: microbe, parasite or virus in culture; conditions: C. albicans ATCC 90028, RPMI 1640 with 2% glucose, EUCAST, n = 2
Experimental: (§5) The MIC values were determined according to the European Committee on Antimicrobial Susceptibility Testing (EUCAST) protocol ([36]) and are shown on Table 4.
(§6) (iii) Antifungal activity.

[15] = tested on: C. glabrata ATCC 90030; assay: microbe, parasite or virus in culture; conditions: C. glabrata ATCC 90030, RPMI 1640 with 2% glucose, EUCAST, n = 2
Experimental: as §5, §6

[16] = tested on: C. parapsilosis ATCC 22019; assay: microbe, parasite or virus in culture; conditions: C. parapsilosis ATCC 22019, RPMI 1640 with 2% glucose, EUCAST, n = 2
Experimental: as §5, §6

[17] = in SWF (50% FBS, 50% peptone water)

SMILES | MIC [1] | MIC [2] | MIC [3] | MIC [4] | MIC [5] | Collagen synthesis by HDF compared to the negative control [6] | MIC [7] | MIC [8] | MIC [9] | IC50 [10] [µM] | MBC [11] | MIC ([11]; in MHB) [µg/mL] | MIC [11, 17] [µg/mL] | IC50 [12] [µM] | MIC [13] | further results
CCCCCCCCCCCCCCCCn1cc[n+](Cc2cn(CC(=O)N[C@@H](CCCCN)C(=O)N[C@H](C(=O)N[C@H](C(=O)N[C@@H](CCCCN)C(=O)N[C@@H](CO)C(N)=O)[C@@H](C)O)[C@@H](C)O)nn2)c1 [Peptide C16Im-KTTKS] (X1-KTTKS-NH2) | 28.7 μM and 28.0 μg/mL | 14.3 μM and 14.0 μg/mL | 14.3 μM and 14.0 μg/mL | 27.4 μM and 26.8 μg/mL | 28.7 μM and 28.0 μg/mL | produce more collagen | 18.5 µg/mL | 18.5 µg/mL | 37.9 μM and 37.0 μg/mL | 22.5 ± 1.08 | 32 to 64 µg/mL | 16 to 32 | 16 to 32 | 36.6 ± 1.09 | 9.5 μM and 9.3 μg/mL | MIC relative to that of ciprofloxacin [7]: ~10 fold; MIC [14]: 4.7 μM and 4.6 μg/mL; MIC [15]: 4.7 μM and 4.6 μg/mL; MIC [16]: 2.4 μM and 2.3 μg/mL
CCCCCCCCCCCCCCCCn1cc[n+](Cc2cn(CCCC[C@H](NC(=O)[C@@H](NC(=O)[C@@H](NC(=O)[C@@H](N)CCCCN)[C@@H](C)O)[C@@H](C)O)C(=O)N[C@@H](CO)C(N)=O)nn2)c1 [KTTK(C16Im)S] | 32.5 μM and 29.9 μg/mL | 7.0 μM and 6.45 μg/mL | 14.0 μM and 12.9 μg/mL | 53.8 μM and 49.5 μg/mL | 32.5 μM and 29.9 μg/mL | produce more collagen | 21.7 μM and 20.0 μg/mL | 21.7 μM and 20.0 μg/mL | 21.7 μM and 20.0 μg/mL | 12.7 ± 1.06 | 32 [64 to 128] μg/mL | 32 | 64 to 128 | 23.1 ± 1.1 | 5.4 μM and 5.0 μg/mL | MIC ([14]; listed as KTTK(C16m)S): 5.4 μM and 5.0 μg/mL; MIC ([15]; listed as KTTK(C16m)S): 5.4 μM and 5.0 μg/mL; MIC ([16]; listed as KTTK(C16m)S): 2.7 μM and 2.5 μg/mL
